# Laboratory results reported in patent US7491819B1 (priority 2004, dated 2009).
# Biological target: T1, HIV-integrase (Human immunodeficiency virus type 1 group M subtype B, UniProt P12497)
# T1 construct: Recombinant integrase (0.26 ng) was incubated with the beads
# Experiment: HIV-Integrase Inhibition Activity (SPA bead strand-transfer assay)
# Format: biochemical
# Conditions: Table 1; read-out: Activity (HIV-integrase inhibition, IC50 class)
# Description: HIV-Integrase Inhibition Activity. To evaluate in-vitro activity against HIV-integrase, 5 pmole of biotin labeled substrate DNA was bound to 100 μg of Streptavidin coated PVT SPA beads (Amersham Pharmacia Biotech). Recombinant integrase (0.26 ng) was incubated with the beads for 90 min at 37° C. Unbound enzyme was removed by washing the complex followed by addition of inhibitors and 0.1 fmol of P33 labeled target DNA. The reaction was stopped by adding EDTA to a final concentration of 10 mM. Samples were counted in TopCountNXT (Packard) and the CPM was used as a measure of integration. The reaction condition was as described in A. Engelman and R. Craigie, J. Virol 69, 5908-5911 (1995). The sequences of substrate and target DNA were described in Nucleic Acid Research 22, 1121-1122 (1994).
row,Structure (SMILES),IC50 [nM]
1,"CC1(C)OCCn2c1nc(C(=O)NCc1ccccc1-c1cccc(C(N)=O)c1)c(O)c2=O [Example 174, Pyrimido[2,1-c][1,4]oxazine-2-carboxamide, N-[[3′-(aminocarbonyl)[1,1′-biphenyl]-2-yl]methyl]-4,6,7,9-tetrahydro-3-hydroxy-9,9-dimethyl-4-oxo-]",2 to 100
2,"CC1(C)OCCn2c1nc(C(=O)NCc1cccc3c1S(=O)(=O)C=C3)c(O)c2=O [Example 139, Pyrimido[2,1-c][1,4]oxazine-2-carboxamide, N-[(1,1-dioxidobenzo[b]thien-7-yl)methyl]-4,6,7,9-tetrahydro-3-hydroxy-9,9-dimethyl-4-oxo-]",2 to 100
3,"CC1(C)OCCn2c1nc(C(=O)NCc1cccc(-n3cccn3)c1)c(O)c2=O [Example 252, Pyrimido[2,1-c][1,4]oxazine-2-carboxamide, 4,6,7,9-tetrahydro-3-hydroxy-9,9-dimethyl-4-oxo-N-[[3-(1H-pyrazol-1-yl)phenyl]methyl]-]",100 to 1000
4,"CC1(C)OCCn2c1nc(C(=O)NCc1ccc(F)cc1-n1cnc(C(=O)NCCO)n1)c(O)c2=O [Example 72, Pyrimido[2,1-c][1,4]oxazine-2-carboxamide, N-[[4-fluoro-2-[3-[[(2-hydroxyethyl)amino]carbonyl]-1H-1,2,4-triazol-1-yl]phenyl]methyl]-4,6,7,9-tetrahydro-3-hydroxy-9,9-dimethyl-4-oxo-]",2 to 100
5,"COc1ccc(-c2cc(F)ccc2CNC(=O)c2nc3n(c(=O)c2O)CCOC3(C)C)cn1 [Example 77, Pyrimido[2,1-c][1,4]oxazine-2-carboxamide, N-[[4-fluoro-2-(6-methoxy-3-pyridinyl)phenyl]methyl]-4,6,7,9-tetrahydro-3-hydroxy-9,9-dimethyl-4-oxo]",2 to 100
6,"CCC1OCCn2c1nc(C(=O)NCc1ccc(F)cc1C(=O)NC)c(O)c2=O (centres unmarked) [Example 15, Pyrimido[2,1-c][1,4]oxazine-2-carboxamide, 9-ethyl-N-[[4-fluoro-2-[(methylamino)carbonyl]phenyl]methyl]-4,6,7,9-tetrahydro-3-hydroxy-4-oxo-]",2 to 100
7,"CC(=O)N1CCN(C(=O)c2ncn(-c3cc(F)ccc3CNC(=O)c3nc4n(c(=O)c3O)CCOC4(C)C)n2)CC1 [Example 66, Pyrimido[2,1-c][1,4]oxazine-2-carboxamide, N-[[2-[3-[(4-acetyl-1-piperazinyl)carbonyl]-1H-1,2,4-triazol-1-yl]-4-fluorophenyl]methyl]-4,6,7,9-tetrahydro-3-hydroxy-9,9-dimethyl-4-oxo-]",2 to 100
8,"CC1(C)OCCn2c1nc(C(=O)NCc1ccc(F)cc1C(=O)NCCO)c(O)c2=O [Example 51, Pyrimido[2,1-c][1,4]oxazine-2-carboxamide, N-[[4-fluoro-2-[[(2-hydroxyethyl)amino]carbonyl]phenyl]methyl]-4,6,7,9-tetrahydro-3-hydroxy-9,9-dimethyl-4-oxo-]",2 to 100
9,"CC1(C)OCCn2c1nc(C(=O)NCc1ccccc1-c1cnc3ccccc3c1)c(O)c2=O [Example 194, Pyrimido[2,1-c][1,4]oxazine-2-carboxamide, 4,6,7,9-tetrahydro-3-hydroxy-9,9-dimethyl-4-oxo-N-[[2-(3-quinolinyl)phenyl]methyl]-]",2 to 100
10,"CC1(C)OCCn2c1nc(C(=O)NCCCc1ccc(F)cc1)c(O)c2=O [Example 26, Pyrimido[2,1-c][1,4]oxazine-2-carboxamide, N-[3-(4-fluorophenyl)propyl]-4,6,7,9-tetrahydro-3-hydroxy-9,9-dimethyl-4-oxo-]",2 to 100
11,"CC1(C)OCCn2c1nc(C(=O)NCc1ccc(Cl)cc1F)c(O)c2=O [Example 277, Pyrimido[2,1-c][1,4]oxazine-2-carboxamide, N-[(4-chloro-2-fluorophenyl)methyl]-4,6,7,9-tetrahydro-3-hydroxy-9,9-dimethyl-4-oxo-]",2 to 100
